Assay results published in ChEMBL document CHEMBL3351452, “Chemical synthesis, cytotoxicity, selectivity and bioavailability of 5α-androstane-3α,17β-diol derivatives” (Bioorg Med Chem, 2014).
pIC50: −log10 of the molar value.

Experiments:
[1] = system: HL-60; assay: Antiproliferative activity against human HL-60 cells assessed as reduction in cell growth after 24 hrs by MTS assay; type: functional, cell-based; conditions: HL-60, 24 h
[2] = system: MCF7; assay: Antiproliferative activity against human MCF7 cells assessed as reduction in cell growth after 24 hrs by MTS assay; type: functional, cell-based; conditions: MCF7, 24 h
[3] = system: T47D; assay: Antiproliferative activity against human T47D cells assessed as reduction in cell growth after 24 hrs by MTS assay; type: functional, cell-based
[4] = system: LNCaP; assay: Antiproliferative activity against human LNCAP cells assessed as reduction in cell growth after 24 hrs by MTS assay; type: functional, cell-based
[5] = Plasma concentration in Sprague-Dawley rat at 2.3 mg/kg, sc measured at 3 hrs by LC/MS/MS analysis; type: ADME, organism-based; parameters: dose 2.3 mg/kg, route subcutaneous
[6] = Plasma concentration in Sprague-Dawley rat at 2.3 mg/kg, sc measured at 12 hrs by LC/MS/MS analysis; type: ADME, organism-based; parameters: dose 2.3 mg/kg, route subcutaneous
[7] = Cytotoxicity against mouse WEHI13 cells assessed as cell proliferation after 48 hrs by MTT assay; type: cell-based; conditions: WEHI13, 48 h

Row | SMILES | pIC50 [1] | pIC50 [2] | pIC50 [3] | pIC50 [4] | concentration at 3 h [5] | concentration at 12 h [6] | pIC50 [7]
1 | C[C@]12C[C@H](N3CCN(C(=O)[C@@H]4CCCN4C(=O)c4ccc5ccccc5c4)CC3)[C@@H](O)C[C@@H]1CC[C@@H]1[C@@H]2CC[C@]2(C)[C@@H](O)CC[C@@H]12 | 6.40 | 6.30 | 6.40 | 5.80 | 64.8 ng/mL | 8.8 ng/mL | < 5.00
2 | C#C[C@]1(O)CC[C@H]2[C@@H]3CC[C@H]4C[C@H](O)[C@@H](N5CCN(C(=O)[C@@H]6CCCN6C(=O)c6ccc7ccccc7c6)CC5)C[C@]4(C)[C@H]3CC[C@@]21C | 5.72 | 6.52 | 6.52 | 5.35 | 185 ng/mL | 50.2 ng/mL | 5.77
3 | C[C@]12C[C@H](N3CCN(C(=O)[C@@H]4CCCN4C(=O)c4ccc5ccccc5n4)CC3)[C@@H](O)C[C@@H]1CC[C@@H]1[C@@H]2CC[C@]2(C)[C@@H](O)CC[C@@H]12 | 5.80 | 7.00 | 7.00 | 7.40 | 163 ng/mL | 3.1 ng/mL | 
4 | C[C@]12C[C@H](N3CCN(C(=O)[C@@H]4CCCN4C(=O)c4ccc5ncccc5c4)CC3)[C@@H](O)C[C@@H]1CC[C@@H]1[C@@H]2CC[C@]2(C)[C@@H](O)CC[C@@H]12 | 5.33 | 5.31 | 5.15 | < 5.00 | 194 ng/mL | 1.3 ng/mL | 
5 | C[C@]12C[C@H](N3CCN(C(=O)[C@@H]4CCCN4C(=O)c4cc5ccccc5cn4)CC3)[C@@H](O)C[C@@H]1CC[C@@H]1[C@@H]2CC[C@]2(C)[C@@H](O)CC[C@@H]12 | 5.85 | 7.00 | 6.70 | 7.15 | 123 ng/mL | 2.7 ng/mL | 5.52
6 | C[C@]12C[C@H](N3CCN(C(=O)[C@@H]4CCCN4C(=O)c4ccc5ccccc5c4)CC3)[C@@H](O)C[C@@H]1CC[C@@H]1[C@@H]2CC[C@@]2(C)[C@H]1CC[C@]2(C)O | 5.33 | 5.92 | 5.70 | < 5.00 | 122 ng/mL | 32 ng/mL | 
7 | CO[C@H]1CC[C@H]2[C@@H]3CC[C@H]4C[C@H](O)[C@@H](N5CCN(C(=O)[C@@H]6CCCN6C(=O)c6ccc7ccccc7c6)CC5)C[C@]4(C)[C@H]3CC[C@]12C | 5.35 | 5.35 | 5.30 | 5.15 | 33.3 ng/mL | 7.6 ng/mL | 
8 | C[C@]12C[C@H](N3CCN(C(=O)[C@@H]4CCCN4C(=O)c4cccc5ccccc45)CC3)[C@@H](O)C[C@@H]1CC[C@@H]1[C@@H]2CC[C@]2(C)[C@@H](O)CC[C@@H]12 | 5.43 | 5.32 | 5.30 | 6.52 |  |  | 
9 | C#C[C@]1(O)CC[C@H]2[C@@H]3CC[C@H]4C[C@H](O)[C@@H](N5CCN(C(=O)[C@@H]6CCCN6C(=O)c6cccc7ccccc67)CC5)C[C@]4(C)[C@H]3CC[C@@]21C | 5.15 | 5.64 | 5.10 | 4.92 |  |  | 
10 | C[C@]12C[C@H](N3CCN(C(=O)[C@@H]4CCCN4C(=O)c4cccc5ccccc45)CC3)[C@@H](O)C[C@@H]1CC[C@@H]1[C@@H]2CC[C@]2(C)C(=O)CC[C@@H]12 | 5.07 | 5.10 | 5.15 | 5.00 |  |  | 
11 | C[C@]12C[C@H](N3CCN(C(=O)[C@@H]4CCCN4C(=O)c4cnc5ccccc5c4)CC3)[C@@H](O)C[C@@H]1CC[C@@H]1[C@@H]2CC[C@]2(C)[C@@H](O)CC[C@@H]12 | 5.40 | 5.92 | 5.15 | < 5.00 | 163 ng/mL | 2.3 ng/mL | 
12 | C[C@]12C[C@H](N3CCN(C(=O)[C@@H]4CCCN4C(=O)c4cc5ccccc5[n+]([O-])c4)CC3)[C@@H](O)C[C@@H]1CC[C@@H]1[C@@H]2CC[C@]2(C)[C@@H](O)CC[C@@H]12 | 6.10 | 6.05 | 6.00 | < 5.00 | 158 ng/mL | 2.9 ng/mL | 
13 | C[C@]12C[C@H](N3CCN(C(=O)[C@@H]4CCCN4C(=O)c4ccc5ccccc5n4)CC3)[C@@H](O)C[C@@H]1CC[C@@H]1[C@@H]2CC[C@]2(C)C(=O)CC[C@@H]12 | 6.22 | 6.00 | 6.15 | 6.10 | 188 ng/mL | 0.3 ng/mL | 
14 | C[C@]12C[C@H](N3CCN(C(=O)[C@@H]4CCCN4C(=O)C4CCCCC4)CC3)[C@@H](O)C[C@@H]1CC[C@@H]1[C@@H]2CC[C@]2(C)[C@@H](O)CC[C@@H]12 |  |  |  |  |  |  | 5.57
15 | C[C@]12CC[C@@H](O)C[C@@H]1CC[C@@H]1[C@@H]2CC[C@]2(C)[C@@H](O)CC[C@@H]12 [ANDROSTANDIOL] |  |  |  |  |  |  | < 5.00
16 | COc1cccc2c1C(=O)c1c(O)c3c(c(O)c1C2=O)C[C@@](O)(C(=O)CO)C[C@@H]3O[C@H]1C[C@H](N)[C@H](O)[C@H](C)O1 [DOXORUBICIN] | 6.15 | < 5.00 | 6.15 | 6.70 |  |  | 7.70
